Experimental data from patent US11512268B2, “Storage-stable enzyme preparations, their production and use” (BASF SE, priority 2017, dated 2022).

Tests used:
[1] = molecular target: T1, Lipolase (Thermomyces lanuginosus, UniProt O59952); test: storage stability of lipase (Lipolase activity, pNitrophenol-valerate substrate) in liquid formulations at 37° C.; format: biochemical, Thermomyces lanuginosa; settings: Lipolase 0.4 wt %, storage at 37° C.
T1 construct: purchased Sigma-Aldrich
T1 sequence (O59952 23-291): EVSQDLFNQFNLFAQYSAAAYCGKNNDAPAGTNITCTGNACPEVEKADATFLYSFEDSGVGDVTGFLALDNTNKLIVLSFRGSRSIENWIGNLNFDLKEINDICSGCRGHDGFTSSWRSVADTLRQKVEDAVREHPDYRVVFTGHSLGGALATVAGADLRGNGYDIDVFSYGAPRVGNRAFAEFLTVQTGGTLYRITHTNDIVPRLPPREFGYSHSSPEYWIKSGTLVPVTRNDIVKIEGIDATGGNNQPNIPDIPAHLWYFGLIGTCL
Procedure: (§1) The storage stability of Lipase and Protease in water was assessed at 37° C.
(§2) Base test formulations were manufactured by making base formulations I to VI by mixing the components according to Table 1.
(§3) The respective salt (component (a)) or comparative compound was added, if applicable, to the respective base formulation in amounts as indicated in Table 1.
(§4) The amount of enzyme as provided in Table 1 refers to active protein. Either lipase or protease was added, depending on which enzyme activity was measured.
(§5) Lipolase® 100 L (CAS-No. 9001-62-1, EC-No. 232-619-9) was purchased from Sigma-Aldrich. Savinase® 16.0 L (CAS-No. 9014-01-1, EC-No. 232-752-2) was purchased from Sigma-Aldrich.
Lipolase activity at certain points in time as indicated in Table 2 was be determined by employing pNitrophenol-valerate (2.4 mM pNP-C5 in 100 mM Tris pH 8.0, 0.01% Triton X100) as a substrate. The absorption was measured at 20° C. every 30 seconds over 5 minutes at 405 nm. The slope (absorbance increase at 405 nm per minute) of the time dependent absorption-curve is directly proportional to the activity of the lipase.
The lipolytic activity values provided in Table 2 were calculated referring to the 100% value determined in the reference formulation at the time 0.
(§6) The nomenclature of formulations is as follows: the Roman number before the full stop characterizes the base formulation, the Arabian number the type of salt (A.# inventive salt (component (a)); C-(A.#) comparative compound). Zero (“0”): no salt, but diethylene glycol.

[2] = molecular target: T2, Savinase (Lederbergia lenta, UniProt P29600); test: storage stability of protease (Savinase activity, Suc-AAPF-pNA substrate) in liquid formulations at 37° C.; format: biochemical; settings: Savinase 16.0 L 0.5 wt %, storage at 37° C.
T2 construct: purchased Sigma-Aldrich
T2 sequence (P29600 1-269): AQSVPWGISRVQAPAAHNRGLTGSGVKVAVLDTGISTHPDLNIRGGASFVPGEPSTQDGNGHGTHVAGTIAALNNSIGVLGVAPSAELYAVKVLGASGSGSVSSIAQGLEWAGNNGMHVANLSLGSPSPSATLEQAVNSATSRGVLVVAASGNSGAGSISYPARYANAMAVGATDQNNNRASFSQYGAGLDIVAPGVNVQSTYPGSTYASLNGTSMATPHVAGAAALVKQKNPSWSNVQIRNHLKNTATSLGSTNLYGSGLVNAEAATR
Procedure: as §1, §2, §3, §4, §5
Savinase activity at certain points in time as indicated in Table 3 was be determined by employing Succinyl-Ala-Ala-Pro-Phe-p-nitroanilide (Suc-AAPF-pNA, short AAPF) as substrate. pNA is cleaved from the substrate molecule by proteolytic cleavage, resulting in release of yellow color of free pNA which was determined by measuring OD405. Measurement were done at 20° C.
The proteolytic activity values provided in Table 3 were calculated referring to the 100% value determined in the reference formulation at the time 0.
as §6

[3] = base formulation I., component (a) 2.5 wt %, 1 d
[4] = base formulation I., component (a) 2.5 wt %, 3 d
[5] = base formulation I., component (a) 2.5 wt %, 6 d
[6] = base formulation I., component (a) 2.5 wt %, 10 d
[7] = base formulation I., component (a) 2.5 wt %, 15 d
[8] = base formulation I., component (a) 2.5 wt %, 20 d
[9] = base formulation I., component (a) 2.5 wt %, 25 d
[10] = base formulation I., component (a) 2.5 wt %, 30 d

Structure (SMILES): C[N+](C)(C)CCO.[Cl-] [C-(A.15), Choline chloride]
- lipase activity [1, 3]: 95%
- lipase activity [1, 4]: 80%
- lipase activity [1, 5]: 67%
- lipase activity [1, 6]: 55%
- lipase activity [1, 7]: 41%
- lipase activity [1, 8]: 32%
- lipase activity [1, 9]: 22%
- lipase activity [1, 10]: 20%
- lipase activity ([1]; base formulation II., component (a) 2.5 wt %, 1 d): 95%
- lipase activity ([1]; base formulation II., component (a) 2.5 wt %, 3 d): 82%
- lipase activity ([1]; base formulation II., component (a) 2.5 wt %, 6 d): 65%
- lipase activity ([1]; base formulation II., component (a) 2.5 wt %, 10 d): 56%
- lipase activity ([1]; base formulation II., component (a) 2.5 wt %, 15 d): 40%
- lipase activity ([1]; base formulation II., component (a) 2.5 wt %, 20 d): 33%
- lipase activity ([1]; base formulation II., component (a) 2.5 wt %, 25 d): 26%
- lipase activity ([1]; base formulation II., component (a) 2.5 wt %, 30 d): 22%
- lipase activity ([1]; base formulation IV., component (a) 4.0 wt %, 1 d): 95%
- lipase activity ([1]; base formulation IV., component (a) 4.0 wt %, 3 d): 82%
- lipase activity ([1]; base formulation IV., component (a) 4.0 wt %, 6 d): 72%
- lipase activity ([1]; base formulation IV., component (a) 4.0 wt %, 10 d): 59%
- lipase activity ([1]; base formulation IV., component (a) 4.0 wt %, 15 d): 44%
- lipase activity ([1]; base formulation IV., component (a) 4.0 wt %, 20 d): 36%
- lipase activity ([1]; base formulation IV., component (a) 4.0 wt %, 25 d): 30%
- lipase activity ([1]; base formulation IV., component (a) 4.0 wt %, 30 d): 23%
- lipase activity ([1]; base formulation V., component (a) 4.0 wt %, 1 d): 95%
- lipase activity ([1]; base formulation V., component (a) 4.0 wt %, 3 d): 86%
- lipase activity ([1]; base formulation V., component (a) 4.0 wt %, 6 d): 74%
- lipase activity ([1]; base formulation V., component (a) 4.0 wt %, 10 d): 63%
- lipase activity ([1]; base formulation V., component (a) 4.0 wt %, 15 d): 54%
- lipase activity ([1]; base formulation V., component (a) 4.0 wt %, 20 d): 41%
- lipase activity ([1]; base formulation V., component (a) 4.0 wt %, 25 d): 39%
- lipase activity ([1]; base formulation V., component (a) 4.0 wt %, 30 d): 30%
- protease activity [2, 3]: 92%
- protease activity [2, 4]: 85%
- protease activity [2, 5]: 64%
- protease activity [2, 6]: 47%
- protease activity [2, 7]: 39%
- protease activity [2, 8]: 31%
- protease activity [2, 9]: 22%
- protease activity [2, 10]: 8%
- protease activity ([2]; base formulation I., component (a) 2.5 wt %, T0): 98%
- protease activity ([2]; base formulation VI., component (a) 4.0 wt %, 1 d): 90%
- protease activity ([2]; base formulation VI., component (a) 4.0 wt %, 3 d): 84%
- protease activity ([2]; base formulation VI., component (a) 4.0 wt %, 6 d): 66%
- protease activity ([2]; base formulation VI., component (a) 4.0 wt %, 10 d): 47%
- protease activity ([2]; base formulation VI., component (a) 4.0 wt %, 15 d): 36%
- protease activity ([2]; base formulation VI., component (a) 4.0 wt %, 20 d): 29%
- protease activity ([2]; base formulation VI., component (a) 4.0 wt %, 25 d): 20%
- protease activity ([2]; base formulation VI., component (a) 4.0 wt %, 30 d): 10%
- protease activity ([2]; base formulation VI., component (a) 4.0 wt %, T0): 85%
